Data published in US20260256792A1, “TREATMENT OF CHRONIC SPONTANEOUS URTICARIA BY ADMINISTERING (R)-2-[3-[4-AMINO-3-(2-FLUORO-4-PHENOXY-PHENYL)PYRAZOLO[3,4-D]PYRIMIDIN-1-YL]PIPERIDINE-1-CARBONYL]-4-METHYL-4-[4-(OXETAN-3-YL)PIPERAZIN-1-YL]PENT-2-ENENITRILE” (priority 2023, published 2026).

System: angioedema in CSU patients
Assay: Phase 2 CSU study: angioedema activity score over 7 days (AAS7)
Assay type: in vivo, human
Parameters: AAS7, Median / AAS7 Change from baseline, Median: scale not given here
Source text: The study comprises a 12 week, randomized, double-blind, placebo-controlled, multi-center, dose-ranging efficacy and safety phase, followed by a 40 week open label extension (OLE) phase (see FIG. 1). The study consists of three phases and an optional OLE phase. […] The weekly angioedema activity score (AAS7) was proposed as a tertiary endpoint. […] Patients were to complete the AAS using the e-diary. The e-diary was to be used once daily on the same time of each day recording of participant's answers to the angioedema activity score over 7 days (AAS7) questionnaire.

[1] = Patients with Prior Omalizumab Use, 400 mg TID, Week 1
[2] = Patients with Prior Omalizumab Use, 400 mg TID, Week 2
[3] = Patients with Prior Omalizumab Use, 400 mg TID, Week 3
[4] = Patients with Prior Omalizumab Use, 400 mg TID, Week 4
[5] = Patients with Prior Omalizumab Use, 400 mg TID, Week 5
[6] = Patients with Prior Omalizumab Use, 400 mg TID, Week 6
[7] = Patients with Prior Omalizumab Use, 400 mg TID, Week 7
[8] = Patients with Prior Omalizumab Use, 400 mg TID, Week 8
[9] = Week 8, 400 mg BID, Incomplete Responders with angioedema at baseline, double-blind period
[10] = Week 8, 400 mg QPM, Incomplete Responders with angioedema at baseline, double-blind period
[11] = Week 8, 400 mg TID, Incomplete Responders with angioedema at baseline, double-blind period
[12] = Week 9, 400 mg BID, Incomplete Responders with angioedema at baseline, double-blind period
[13] = Week 9, 400 mg QPM, Incomplete Responders with angioedema at baseline, double-blind period
[14] = Week 9, 400 mg TID, Incomplete Responders with angioedema at baseline, double-blind period
[15] = Week 10, 400 mg BID, Incomplete Responders with angioedema at baseline, double-blind period
[16] = Week 10, 400 mg QPM, Incomplete Responders with angioedema at baseline, double-blind period
[17] = Week 10, 400 mg TID, Incomplete Responders with angioedema at baseline, double-blind period
[18] = Week 11, 400 mg BID, Incomplete Responders with angioedema at baseline, double-blind period
[19] = Week 11, 400 mg QPM, Incomplete Responders with angioedema at baseline, double-blind period
[20] = Week 11, 400 mg TID, Incomplete Responders with angioedema at baseline, double-blind period
[21] = Week 12, 400 mg BID, Incomplete Responders with angioedema at baseline, double-blind period
[22] = Week 12, 400 mg QPM, Incomplete Responders with angioedema at baseline, double-blind period
[23] = Week 12, 400 mg TID, Incomplete Responders with angioedema at baseline, double-blind period

CC(C)(C=C(C#N)C(=O)N1CCC[C@@H](n2nc(-c3ccc(Oc4ccccc4)cc3F)c3c(N)ncnc32)C1)N1CCN(C2COC2)CC1 [rilzabrutinib, (R)-2-[3-[4-amino-3-(2-fluoro-4-phenoxy-phenyl)pyrazolo[3,4-d]pyrimidin-1-yl]piperidine-1-carbonyl]-4-methyl-4-[4-(oxetan-3-yl)piperazin-1-yl]pent-2-enenitrile]
AAS7 Change from baseline, Median (Patients with Prior Omalizumab Use, 400 mg QPM, Week 8): −50.00 | AAS7, Mean (SD) [1]: 6.33 (7.77) | AAS7, Median [1]: 4.00 | AAS7 Change from baseline, Median [1]: −25.83 | AAS7 Percent change from baseline, Mean (SD) [1]: −79.91 (18.61) % | AAS7 Percent change from baseline, Median [1]: −76.47% | AAS7, Mean (SD) [2]: 4.00 (6.93) | AAS7, Median [2]: 0.00 | AAS7 Change from baseline, Mean (SD) [2]: −27.28 (19.44) | AAS7 Change from baseline, Median [2]: −36.00 | AAS7 Percent change from baseline, Mean (SD) [2]: −76.47 (40.75) % | AAS7 Percent change from baseline, Median [2]: −100.00% | AAS7, Mean (SD) [3]: 7.00 (7.00) | AAS7, Median [3]: 7.00 | AAS7 Change from baseline, Mean (SD) [3]: −24.28 (18.46) | AAS7 Change from baseline, Median [3]: −33.83 | AAS7 Percent change from baseline, Mean (SD) [3]: −66.83 (43.45) % | AAS7 Percent change from baseline, Median [3]: −82.86% | AAS7, Mean (SD) [4]: 7.11 (6.30) | AAS7, Median [4]: 9.33 | AAS7 Change from baseline, Mean (SD) [4]: −24.17 (16.75) | AAS7 Change from baseline, Median [4]: −31.50 | AAS7 Percent change from baseline, Mean (SD) [4]: −68.85 (36.02) % | AAS7 Percent change from baseline, Median [4]: −77.14% | AAS7, Median [5]: 19.83 | AAS7 Change from baseline, Mean (SD) [5]: −18.00 (19.67) | AAS7 Change from baseline, Median [5]: −21.00 | AAS7 Percent change from baseline, Mean (SD) [5]: −44.59 (59.12) % | AAS7 Percent change from baseline, Median [5]: −51.43% | AAS7, Mean (SD) [6]: 7.00 (8.19) | AAS7, Median [6]: 5.00 | AAS7 Change from baseline, Mean (SD) [6]: −24.28 (20.16) | AAS7 Change from baseline, Median [6]: −35.83 | AAS7 Percent change from baseline, Mean (SD) [6]: −64.55 (51.17) % | AAS7 Percent change from baseline, Median [6]: −87.76% | AAS7, Mean (SD) [7]: 9.72 (16.84) | AAS7, Median [7]: 0.00 | AAS7 Change from baseline, Mean (SD) [7]: −21.56 (12.79) | AAS7 Change from baseline, Median [7]: −17.00 | AAS7 Percent change from baseline, Mean (SD) [7]: −76.19 (41.24) % | AAS7 Percent change from baseline, Median [7]: −100.00% | AAS7, Mean (SD) [8]: 4.67 (7.23) | AAS7, Median [8]: 1.00 | AAS7 Change from baseline, Mean (SD) [8]: −26.61 (19.68) | AAS7 Change from baseline, Median [8]: −36.00 | AAS7 Percent change from baseline, Mean (SD) [9]: −100.00 (0.00) | AAS7 Percent change from baseline, Median [9]: −100.00 | AAS7 Percent change from baseline, Mean (SD) [10]: −73.53 (NC) | AAS7 Percent change from baseline, Median [10]: −73.53 | AAS7 Percent change from baseline, Mean (SD) [11]: −73.69 (43.46) | AAS7 Percent change from baseline, Median [11]: −97.55 | AAS7, Mean (SD) [12]: 0.00 (0.00) | AAS7, Median [12]: 0.00 | AAS7 Change from baseline, Mean (SD) [12]: −39.50 (3.54) | AAS7 Change from baseline, Median [12]: −39.50 | AAS7 Percent change from baseline, Mean (SD) [12]: −100.00 (0.00) | AAS7 Percent change from baseline, Median [12]: −100.00 | AAS7, Mean (SD) [13]: 10.00 (NC) | AAS7 Change from baseline, Mean (SD) [13]: −58.00 (NC) | AAS7 Change from baseline, Median [13]: −58.00 | AAS7 Percent change from baseline, Mean (SD) [13]: −85.29 (NC) | AAS7 Percent change from baseline, Median [13]: −85.29 | AAS7, Mean (SD) [14]: 4.39 (6.62) | AAS7, Median [14]: 1.17 | AAS7 Change from baseline, Mean (SD) [14]: −26.89 (19.04) | AAS7 Change from baseline, Median [14]: −36.00 | AAS7 Percent change from baseline, Mean (SD) [14]: −75.52 (39.95) | AAS7 Percent change from baseline, Median [14]: −97.14 | AAS7, Mean (SD) [15]: 0.00 (0.00) | AAS7, Median [15]: 0.00 | AAS7 Change from baseline, Mean (SD) [15]: −39.50 (3.54) | AAS7 Change from baseline, Median [15]: −39.50 | AAS7 Percent change from baseline, Mean (SD) [15]: −100.00 (0.00) | AAS7 Percent change from baseline, Median [15]: −100.00 | AAS7, Mean (SD) [16]: 0.00 (NC) | AAS7, Median [16]: 0.00 | AAS7 Change from baseline, Mean (SD) [16]: −68.00 (NC) | AAS7 Change from baseline, Median [16]: −68.00 | AAS7 Percent change from baseline, Mean (SD) [16]: −100.00 (NC) | AAS7 Percent change from baseline, Median [16]: −100.00 | AAS7, Mean (SD) [17]: 9.00 (10.15) | AAS7, Median [17]: 7.00 | AAS7 Change from baseline, Mean (SD) [17]: −22.28 (21.92) | AAS7 Change from baseline, Median [17]: −33.83 | AAS7 Percent change from baseline, Mean (SD) [17]: −55.07 (63.56) | AAS7 Percent change from baseline, Median [17]: −82.86 | AAS7, Mean (SD) [18]: 0.00 (0.00) | AAS7, Median [18]: 0.00 | AAS7 Change from baseline, Mean (SD) [18]: −39.50 (3.54) | AAS7 Change from baseline, Median [18]: −39.50 | AAS7 Percent change from baseline, Mean (SD) [18]: −100.00 (0.00) | AAS7 Percent change from baseline, Median [18]: −100.00 | AAS7, Mean (SD) [19]: 0.00 (NC) | AAS7, Median [19]: 0.00 | AAS7 Change from baseline, Mean (SD) [19]: −68.00 (NC) | AAS7 Change from baseline, Median [19]: −68.00 | AAS7 Percent change from baseline, Mean (SD) [19]: −100.00 (NC) | AAS7 Percent change from baseline, Median [19]: −100.00 | AAS7, Median [20]: 0.00 | AAS7 Change from baseline, Mean (SD) [20]: −24.61 (24.03) | AAS7 Change from baseline, Median [20]: −36.00 | AAS7 Percent change from baseline, Mean (SD) [20]: −60.78 (67.92) | AAS7 Percent change from baseline, Median [20]: −100.00 | AAS7, Mean (SD) [21]: 0.00 (0.00) | AAS7, Median [21]: 0.00 | AAS7 Change from baseline, Mean (SD) [21]: −39.50 (3.54) | AAS7 Change from baseline, Median [21]: −39.50 | AAS7 Percent change from baseline, Mean (SD) [21]: −100.00 (0.00) | AAS7 Percent change from baseline, Median [21]: −100.00 | AAS7, Mean (SD) [22]: 5.00 (NC) | AAS7, Median [22]: 5.00 | AAS7 Change from baseline, Mean (SD) [22]: −63.00 (NC) | AAS7 Change from baseline, Median [22]: −63.00 | AAS7 Percent change from baseline, Mean (SD) [22]: −92.65 (NC) | AAS7 Percent change from baseline, Median [22]: −92.65 | AAS7 Change from baseline, Mean (SD) [23]: −16.50 (27.58) | AAS7 Change from baseline, Median [23]: −16.50 | AAS7 Percent change from baseline, Mean (SD) [23]: −41.18 (83.19) | AAS7 Percent change from baseline, Median [23]: −41.18
